# Measurements from the supplement of paper PMC11061612.
# Legend:
# Experiment in all cases: combination Emax (second highest fraction inhibited in the dose matrix, 72 h); higher = more inhibition; extreme values may be limits of the assay
# [1] = system: Caov-4 (Ovarian Carcinoma)
# How it was run: (§1)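 Bliss excess equals the observed combination effect minus the expected value EA + EB − EA·EB, where EA and EB are the effects of each agent alone. Combination Emax is the second-highest inhibition within the matrix. Inhibition was scaled from CellTiter-Glo 2.0 luminescence, with 0 set by vehicle wells and 1 by blank wells, after 72 hours of two-drug dosing of cells plated in 1536-well plates.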
# [2] = system: HSC-4 (Oral Cavity Carcinoma)
# How it was run: as §1
# [3] = system: LU-65 (Non-Small Cell Lung Carcinoma)
# How it was run: as §1
# D-263MG (Glioblastoma) = system: D-263MG (Glioblastoma)
# How it was run: as §1
# [4] = system: SW13 (Other Solid Carcinomas)
# How it was run: as §1
# [5] = system: HGC-27 (Gastric Carcinoma)
# How it was run: as §1
# [6] = system: MLMA (Other Blood Carcinomas)
# How it was run: as §1
# [7] = system: OE19 (Esophageal Adenocarcinoma)
# How it was run: as §1
# YH-13 (Glioblastoma) = system: YH-13 (Glioblastoma)
# How it was run: as §1
# [8] = system: NCI-H727 (Other Solid Carcinomas)
# How it was run: as §1
# [9] = system: EoL-1-cell (Acute Myeloid Leukemia)
# How it was run: as §1
# [10] = system: OSC-20 (Oral Cavity Carcinoma)
# How it was run: as §1
# [11] = system: HOP-62 (Lung Adenocarcinoma)
# How it was run: as §1
# NB69 (Neuroblastoma) = system: NB69 (Neuroblastoma)
# How it was run: as §1
# [12] = system: MIA-PaCa-2 (Pancreatic Carcinoma)
# How it was run: as §1
# [13] = system: NCI-H358 (Lung Adenocarcinoma)
# How it was run: as §1
# PWR-1E (Non-Cancerous) = system: PWR-1E (Non-Cancerous)
# How it was run: as §1
# [14] = system: NUGC-3 (Gastric Carcinoma)
# How it was run: as §1
# [15] = system: Hs-766T (Pancreatic Carcinoma)
# How it was run: as §1
# EW-24 (Ewing's Sarcoma) = system: EW-24 (Ewing's Sarcoma)
# How it was run: as §1
SMILES,combination Emax [1],combination Emax [2],combination Emax [3],combination Emax (D-263MG (Glioblastoma)),combination Emax [4],combination Emax [5],combination Emax [6],combination Emax [7],combination Emax (YH-13 (Glioblastoma)),combination Emax [8],combination Emax [9],combination Emax [10],combination Emax [11],combination Emax (NB69 (Neuroblastoma)),combination Emax [12],combination Emax [13],combination Emax (PWR-1E (Non-Cancerous)),combination Emax [14],combination Emax [15],combination Emax (EW-24 (Ewing's Sarcoma))
"CC1(C)CCC(CN2CCN(c3ccc(C(=O)NS(=O)(=O)c4ccc(NCC5CCOCC5)c([N+](=O)[O-])c4)c(Oc4cnc5[nH]ccc5c4)c3)CC2)=C(c2ccc(Cl)cc2)C1 [Venetoclax] + Cc1cc2ncnn2cc1Nc1ncc2c(n1)n(C1CCOCC1)c(=O)n2C [AZD7648] (first compound max 1 µM, 7x7, partner max 10 µM)",0.263,0.11,0.378,0.179,0.302,0.485,0.86,0.281,0.3,0.25,0.996,0.205,0.172,0.523,0.269,0.293,0.164,0.409,0.372,0.38
"CC1(C)CCC(CN2CCN(c3ccc(C(=O)NS(=O)(=O)c4ccc(NCC5CCOCC5)c([N+](=O)[O-])c4)c(Oc4cnc5[nH]ccc5c4)c3)CC2)=C(c2ccc(Cl)cc2)C1 [Venetoclax] + CN(C)CCCOc1ccc(-c2ccc3ncc4c(c3c2)n(C2CCOCC2)c(=O)n4C)cn1 [AZD0156] (first compound max 1 µM, 7x7, partner max 1 µM)",0.226,0.14,0.362,0.171,0.465,0.362,0.93,0.281,0.198,0.317,0.986,0.16,0.242,0.329,0.375,0.325,0.217,0.276,0.41,0.323
"NC1(C(=O)N[C@@H](CCO)c2ccc(Cl)cc2)CCN(c2ncnc3[nH]ccc23)CC1 [Capivasertib] + CC(=O)c1c(C)c2cnc(Nc3ccc(N4CCNCC4)cn3)nc2n(C2CCCC2)c1=O [Palbociclib] (first compound max 10 µM, 7x7, partner max 10 µM)",0.377,0.423,0.448,0.448,0.261,0.874,0.515,0.523,0.609,0.507,0.858,0.279,0.572,0.726,0.451,0.436,0.535,0.592,0.36,0.495
"CC(=O)c1c(C)c2cnc(Nc3ccc(N4CCNCC4)cn3)nc2n(C2CCCC2)c1=O [Palbociclib] + Cc1c2c(nn1C)CSCc1cc(n(C)n1)CSc1cc(c3ccccc3c1)OCCCc1c(C(=O)O)n(C)c3c-2c(Cl)ccc13 [AZD5991] (first compound max 10 µM, 7x7, partner max 1 µM)",0.602,0.106,0.281,0.612,0.838,0.715,0.784,0.664,0.38,0.311,1,0.168,0.424,0.91,0.447,0.363,0.271,0.572,0.404,0.577
"COc1nnc2ccc(N3CCC(c4ccc(OCCN5CCN(C)C(=O)[C@H]5C)cc4)CC3)nn12 [AZD5153] + Cc1c2c(nn1C)CSCc1cc(n(C)n1)CSc1cc(c3ccccc3c1)OCCCc1c(C(=O)O)n(C)c3c-2c(Cl)ccc13 [AZD5991] (first compound max 1 µM, 7x7, partner max 1 µM)",0.86,0.199,0.623,0.98,0.969,0.987,0.994,0.623,0.667,0.388,1,0.199,0.602,0.998,0.993,0.448,0.837,0.519,0.459,0.685
"CC(=O)c1c(C)c2cnc(Nc3ccc(N4CCNCC4)cn3)nc2n(C2CCCC2)c1=O [Palbociclib] + CC1(C)CCC(CN2CCN(c3ccc(C(=O)NS(=O)(=O)c4ccc(NCC5CCOCC5)c([N+](=O)[O-])c4)c(Oc4cnc5[nH]ccc5c4)c3)CC2)=C(c2ccc(Cl)cc2)C1 [Venetoclax] (first compound max 10 µM, 7x7, partner max 1 µM)",0.18,0.121,0.117,0.222,0.24,0.628,0.683,0.257,0.344,0.232,0.994,0.0423,0.251,0.762,0.31,0.337,0.149,0.339,0.149,0.432
"COc1nnc2ccc(N3CCC(c4ccc(OCCN5CCN(C)C(=O)[C@H]5C)cc4)CC3)nn12 [AZD5153] + Cn1cnc2c(F)c(Nc3ccc(Br)cc3Cl)c(C(=O)NOCCO)cc21 [Selumetinib] (first compound max 1 µM, 7x7, partner max 10 µM)",0.706,0.423,0.789,0.441,0.593,0.796,0.906,0.631,0.546,0.678,1,0.23,0.668,1,0.859,0.589,0.777,0.649,0.589,0.444
"Cn1cnc2c(F)c(Nc3ccc(Br)cc3Cl)c(C(=O)NOCCO)cc21 [Selumetinib] + C[C@@H]1COCCN1C2=NC(=NC(=C2)C3(CC3)[S@](=N)(=O)C)C4=C5C=CNC5=NC=C4 [AZD6738] (first compound max 10 µM, 7x7, partner max 10 µM)",0.76,0.595,0.808,0.359,0.628,0.734,0.596,0.606,0.51,0.652,1,0.295,0.569,0.999,0.686,0.586,0.935,0.666,0.567,0.667
"CCc1c2c(nc3ccc(O)cc13)-c1cc3c(c(=O)n1C2)COC(=O)[C@]3(O)CC [SN-38] + O=C(c1cc(Cc2n[nH]c(=O)c3ccccc23)ccc1F)N1CCN(C(=O)C2CC2)CC1 [Olaparib] (first compound max 0.3 µM, 7x7, partner max 10 µM)",0.937,,0.87,0.703,0.962,0.852,0.858,0.309,0.58,0.256,0.99,0.746,0.672,0.967,0.935,0.693,,,0.415,0.821
"CS(=O)(=O)CCNCc1ccc(-c2ccc3ncnc(Nc4ccc(OCc5cccc(F)c5)c(Cl)c4)c3c2)o1 [Lapatinib] + NC1(c2ccc(-c3nc4ccn5c(=O)[nH]nc5c4cc3-c3ccccc3)cc2)CCC1 [MK-2206] (first compound max 10 µM, 7x7, partner max 10 µM)",0.878,0.42,0.649,0.492,0.902,0.988,0.945,,0.909,0.88,0.973,,,0.941,0.929,0.631,0.836,0.91,0.303,0.925
"Cc1c2c(nn1C)CSCc1cc(n(C)n1)CSc1cc(c3ccccc3c1)OCCCc1c(C(=O)O)n(C)c3c-2c(Cl)ccc13 [AZD5991] + CC(=O)O[C@H]1C(=O)[C@@]2(C)[C@H]([C@H](OC(=O)c3ccccc3)[C@]3(O)C[C@H](OC(=O)[C@H](O)[C@@H](NC(=O)c4ccccc4)c4ccccc4)C(C)=C1C3(C)C)[C@]1(OC(C)=O)CO[C@@H]1C[C@@H]2O [Paclitaxel] (first compound max 1 µM, 7x7, partner max 3 µM)",0.833,,0.752,1,1,,0.872,,0.994,0.136,1,,,1,0.807,0.818,,,0.304,0.734
"C=CCn1c(=O)c2cnc(Nc3ccc(N4CCN(C)CC4)cc3)nc2n1-c1cccc(C(C)(C)O)n1 [AZD1775] + CCc1c2c(nc3ccc(O)cc13)-c1cc3c(c(=O)n1C2)COC(=O)[C@]3(O)CC [SN-38] (first compound max 1 µM, partner max 0.3 µM)",0.905,,0.944,0.641,0.964,,0.786,,0.741,0.514,1,,,0.997,0.969,0.687,,,0.537,0.782
"C[C@@H](Oc1cc(-c2cnn(C3CCNCC3)c2)cnc1N)c1c(Cl)ccc(F)c1Cl [Crizotinib] + Cn1cnc2c(F)c(Nc3ccc(Br)cc3Cl)c(C(=O)NOCCO)cc21 [Selumetinib] (first compound max 10 µM, 7x7, partner max 10 µM)",0.552,,0.974,0.308,0.522,,0.491,,0.446,0.958,1,,,1,0.763,0.587,,,0.516,0.545
